In paper PMC8286840, “Identifying SARS-CoV-2 antiviral compounds by screening for small molecule inhibitors of Nsp3 papain-like protease” (Biochemical Journal, 2021):
Structures can show the parent of a compound that is named as a salt. Where two headings read alike, the source gives them in different places.

Key:
[1] = target: T1, SARS-CoV-2 PLpro (nsp3 1564–1878) (Severe acute respiratory syndrome coronavirus 2, UniProt P0DTD1); test: biochemical; parameters: FRET-quenched peptide (Pro3) cleavage by PLpro, 10 min pre-incubation, slope over 20 min, normalised to no-compound control; settings: high concentration screen, read-out: % of control remaining
[2] = target: T1, SARS-CoV-2 PLpro (nsp3 1564–1878); test: biochemical; parameters: FRET-quenched peptide (Pro3) cleavage by PLpro, 10 min pre-incubation, slope over 20 min, normalised to no-compound control; settings: low concentration screen, read-out: % of control remaining

COc1cc(/C=C(\C#N)C(=O)c2ccc(O)c(O)c2)cc(I)c1O [I-OMe-Tyrphostin AG 538] was tested, and the remaining activity at 3.75 µM ([1]; Well no.=1420) was 92.9% and the remaining activity at 1.25 µM ([2]; Well no.=1420) was 93%.

Work on CNC(=O)[C@H]1O[C@@H](n2cnc3c(NCc4cccc(I)c4)ncnc32)[C@H](O)[C@@H]1O [IB-MECA] yielded a remaining activity at 3.75 µM ([1]; Well no.=923) of 99.3% and a remaining activity at 1.25 µM ([2]; Well no.=923) of 94.3%.

COc1cc(OC)c(C=C2C(=O)Nc3ccccc32)c(OC)c1 [IC261] showed a remaining activity at 3.75 µM ([1]; Well no.=2506) of 103% and a remaining activity at 1.25 µM ([2]; Well no.=2506) of 103%.

With Cc1ccccc1-n1c(Cn2cnc3c(N)ncnc32)nc2cccc(C)c2c1=O [IC87114] the remaining activity at 3.75 µM ([1]; Well no.=2945) was 97.6% and the remaining activity at 1.25 µM ([2]; Well no.=2945) was 98.3%.

O=C(Nc1ccc(S(=O)(=O)Nc2nccs2)cc1)C(c1ccccc1)c1ccccc1 [ICA-121431] was tested, and the remaining activity at 3.75 µM ([1]; Well no.=7878) was 99.6% and the remaining activity at 1.25 µM ([2]; Well no.=7878) was 98.2%.

In the case of Cc1ccc(OC[C@H](O)[C@@H](C)NC(C)C)c2c1CCC2 [ICI 118,551 hydrochloride], the remaining activity at 3.75 µM ([1]; Well no.=1113) is reported as 102% and the remaining activity at 1.25 µM ([2]; Well no.=1113) is reported as 100%.

CN(C(=O)Cc1ccc(Cl)c(Cl)c1)C(CN1CCCC1)c1cccc(OCC(=O)O)c1 (stereo not drawn) [ICI 204,448 hydrochloride] gave a remaining activity at 3.75 µM ([1]; Well no.=1065) of 104% and a remaining activity at 1.25 µM ([2]; Well no.=1065) of 101%.

O=C(O)CC/C=C\C[C@H]1CO[C@@H](c2ccccc2Cl)O[C@H]1c1ccccc1O [ICI 192605] gave a remaining activity at 3.75 µM ([1]; Well no.=5873) of 100% and a remaining activity at 1.25 µM ([2]; Well no.=5873) of 98.7%.

For Nc1nonc1C(=Nc1ccc(F)c(Cl)c1)NO [IDO5L], the remaining activity at 3.75 µM ([1]; Well no.=8263) was 103% and the remaining activity at 1.25 µM ([2]; Well no.=8263) was 107%.

Work on Nc1nonc1C(=Nc1ccc(F)c(Br)c1)NO [IDO-IN-1] yielded a remaining activity at 3.75 µM ([1]; Well no.=8359) of 99.9% and a remaining activity at 1.25 µM ([2]; Well no.=8359) of 99.2%.

Work on Cc1ccc(NC(=O)Nc2cc(-c3ccccc3-c3nn[nH]n3)ccc2N(CC(C)C)CC(C)C)cc1 [IDO-IN-2] yielded a remaining activity at 3.75 µM ([1]; Well no.=8123) of 94.6% and a remaining activity at 1.25 µM ([2]; Well no.=8123) of 99.9%.

With NCCNc1nonc1C(=Nc1ccc(F)c(Br)c1)NO [IDO-IN-3] the remaining activity at 3.75 µM ([1]; Well no.=8693) was 101% and the remaining activity at 1.25 µM ([2]; Well no.=8693) was 107%.

Cc1ccc(NC(=O)Nc2cc([C@H]3C[C@H]3C(=O)O)ccc2N(CC(C)C)CC(C)C)cc1 [IDO-IN-4] gave a remaining activity at 3.75 µM ([1]; Well no.=8647) of 106% and a remaining activity at 1.25 µM ([2]; Well no.=8647) of 104%.

In the case of CSCCNc1nonc1-c1noc(=O)n1-c1ccc(F)c(Br)c1 [IDO-IN-12], the remaining activity at 3.75 µM ([1]; Well no.=8177) is reported as 99.7% and the remaining activity at 1.25 µM ([2]; Well no.=8177) is reported as 105%.

With NCCCCCNCC12CC3CC(CC(C3)C1)C2 [IEM 1754 dihydrobroMide] the remaining activity at 3.75 µM ([1]; Well no.=5175) was 99.2% and the remaining activity at 1.25 µM ([2]; Well no.=5175) was 97.7%.

C[N+](C)(C)CCCCCNCC12CC3CC(CC(C3)C1)C2 [IEM-1460] was tested, and the remaining activity at 3.75 µM ([1]; Well no.=524) was 105% and the remaining activity at 1.25 µM ([2]; Well no.=524) was 105%.

O=C(c1ccc(Nc2nccc(-c3cc4ccccc4s3)n2)cc1)N1CCC(N2CCCC2)CC1 [IKK 16 - N-(4-Pyrrolidin-1-yl-piperidin-1-yl)-[4-(4-benzo[b]thiophen-2-yl-pyrimidin-2-ylamino)phenyl]carboxamide hydrochloride] showed a remaining activity at 3.75 µM ([1]; Well no.=2542) of 103% and a remaining activity at 1.25 µM ([2]; Well no.=2542) of 100%.

O=C(Nc1cc(Cl)cc2c1[nH]c1cnccc12)c1cccnc1 [IKK Inhibitor X] showed a remaining activity at 3.75 µM ([1]; Well no.=2445) of 101% and a remaining activity at 1.25 µM ([2]; Well no.=2445) of 97.8%.

N#Cc1c(C2CCNCC2)cc(-c2c(O)cccc2OCC2CC2)nc1N [IKK-2 Inhibitor VIII] gave a remaining activity at 3.75 µM ([1]; Well no.=2441) of 108% and a remaining activity at 1.25 µM ([2]; Well no.=2441) of 104%.

Work on NC(=O)Nc1sc(-c2ccccc2)cc1C(N)=O [IKK-2 Inhibitor VI] yielded a remaining activity at 3.75 µM ([1]; Well no.=2437) of 106% and a remaining activity at 1.25 µM ([2]; Well no.=2437) of 107%.

Compound O=C(Nc1cc(C(F)(F)F)cc(C(F)(F)F)c1)c1cc(Cl)ccc1O [IKK-2 Inhibitor V] has a remaining activity at 3.75 µM ([1]; Well no.=2435) of 102% and a remaining activity at 1.25 µM ([2]; Well no.=2435) of 99.8%.

Compound NC(=O)Nc1cc(-c2ccccc2)sc1C(N)=O [IKK-2 Inhibitor XI] has a remaining activity at 3.75 µM ([1]; Well no.=2838) of 103% and a remaining activity at 1.25 µM ([2]; Well no.=2838) of 99.2%.

In the case of Cc1[nH]c2ccccc2c1C1=C(NCCc2ccc(F)cc2)C(=O)N(C)C1=O [IM-12], the remaining activity at 3.75 µM ([1]; Well no.=5776) is reported as 100% and the remaining activity at 1.25 µM ([2]; Well no.=5776) is reported as 99.9%.

Compound O=C(Nc1cc(C(F)(F)F)cc(C(F)(F)F)c1)c1cc(Cl)ccc1O [IMD 0354 - N-[3,5-Bis(trifluoromethyl)phenyl]-5-chloro-2-hydroxybenzamide] has a remaining activity at 3.75 µM ([1]; Well no.=2586) of 82.3% and a remaining activity at 1.25 µM ([2]; Well no.=2586) of 86.3%.

Fc1ccc(CN(C2=NCCN2)c2c(Cl)cccc2Cl)cc1 [IMID-4F hydrochloride] gave a remaining activity at 3.75 µM ([1]; Well no.=718) of 96.8% and a remaining activity at 1.25 µM ([2]; Well no.=718) of 96.3%.

For COc1ccc(/C=C2\COc3ccc(C)cc3C2=O)cc1O [IMS2186], the remaining activity at 3.75 µM ([1]; Well no.=5394) was 97.5% and the remaining activity at 1.25 µM ([2]; Well no.=5394) was 97.1%.

With CCO[C@H]1CN([C@H]2CC[C@@](O)(c3ccc4c(c3)OCO4)CC2)C[C@@H]1NC(=O)CNC(=O)c1cccc(C(F)(F)F)c1 [INCB3344] the remaining activity at 3.75 µM ([1]; Well no.=8605) was 102% and the remaining activity at 1.25 µM ([2]; Well no.=8605) was 108%.

CNC(=O)c1ccc(-c2cnc3ncc(Cc4ccc5ncccc5c4)n3n2)cc1F [INCB28060] gave a remaining activity at 3.75 µM ([1]; Well no.=5119) of 103% and a remaining activity at 1.25 µM ([2]; Well no.=5119) of 102%.

COc1ccc([C@]2(O)CC[C@@H](N3CC[C@@H](NC(=O)CNC(=O)c4cccc(C(F)(F)F)c4)C3)CC2)cn1 [INCB 3284] gave a remaining activity at 3.75 µM ([1]; Well no.=8271) of 99.4% and a remaining activity at 1.25 µM ([2]; Well no.=8271) of 102%.

CC(C)n1nc(-c2ccc3oc(N)nc3c2)c2c(N)ncnc21 [INK 128 (MLN0128)] was tested, and the remaining activity at 3.75 µM ([1]; Well no.=5133) was 104% and the remaining activity at 1.25 µM ([2]; Well no.=5133) was 98.6%.

O=C(O)c1ccc(O)c2ncccc12 [IOX1] was tested, and the remaining activity at 3.75 µM ([1]; Well no.=5529) was 104% and the remaining activity at 1.25 µM ([2]; Well no.=5529) was 102%.

For O=C(O)CNC(=O)c1c(O)c2ccccc2n(Cc2ccccc2)c1=O [IOX2], the remaining activity at 3.75 µM ([1]; Well no.=5227) was 95.1% and the remaining activity at 1.25 µM ([2]; Well no.=5227) was 101%.

For O=[N+]([O-])c1ccc(CNc2nc(NCc3cccc(C(F)(F)F)c3)nc3nc[nH]c23)cc1 [IP3K Inhibitor], the remaining activity at 3.75 µM ([1]; Well no.=2477) was 105% and the remaining activity at 1.25 µM ([2]; Well no.=2477) was 103%.

In the case of C[C@H](Nc1ncnc2nc[nH]c12)c1cc2cccc(Cl)c2c(=O)n1-c1ccccc1 [IPI-145 (INK1197)], the remaining activity at 3.75 µM ([1]; Well no.=5170) is reported as 99.5% and the remaining activity at 1.25 µM ([2]; Well no.=5170) is reported as 102%.

CC1(C)CN2C(CSC(=NC3CCCCC3)NC3CCCCC3)=CSC2=N1 [IT1t (dihydrochloride)] gave a remaining activity at 3.75 µM ([1]; Well no.=6942) of 93.3%, a remaining activity at 3.75 µM ([1]; Well no.=8463) of 106% and a remaining activity at 1.25 µM ([2]; Well no.=6942) of 94.3%. For the same compound, the remaining activity at 1.25 µM ([2]; Well no.=8463) was 107%.
